Active and inactive are the calls of the source. The calls are words filed in the database; no cut-off is given here.
Legend:
[1] = system: RNA; test: Binding affinity to complementary RNA (unknown origin) in sodium phosphate buffer assessed as melting temperature of PNA-RNA duplex; format: nucleic-acid assay
[2] = system: RNA; test: Binding affinity to complementary RNA (unknown origin) with mismatch bases in sodium phosphate buffer; format: nucleic-acid assay
[3] = system: Keratinocyte; test: Inhibition of PDZK1IP1 mRNA expression in human keratinocytes incubated for 24 hrs by RT-qPCR analysis; format: functional, cell-based

| SMILES | Tm [1] [°C] | Activity [2] | inhibition [3] |
| --- | --- | --- | --- |
| Cc1cn(CC(=O)N(CCNC(=O)CN(CCNC(=O)CN(CCN)C(=O)Cn2ccc(N)nc2=O)C(=O)Cn2cc3cc(COCCN)[nH]c3nc2=O)CC(=O)NCCN(CC(=O)NCCN(CC(=O)NCCN(CC(=O)NCCN(CC(=O)NCCN(CC(=O)NCCN(CC(=O)NCCN(CC(=O)NCCN(CC(=O)NCCN(CC(=O)NCCN(CC(=O)NCCN(CC(=O)NCCN(CC(=O)NCCN(CC(=O)NCCN(CC(=O)NCCN(CC(=O)NCCN(CC(=O)NCCN(CC(=O)O)C(=O)Cn2ccc(N)nc2=O)C(=O)Cn2cnc3c(=O)[nH]c(NCCCCCCN)nc32)C(=O)Cn2ccc(N)nc2=O)C(=O)Cn2ccc(N)nc2=O)C(=O)Cn2cnc3c(=O)[nH]c(NCCCCCCN)nc32)C(=O)Cn2cnc3c(=O)[nH]c(N)nc32)C(=O)Cn2cc(C)c(=O)[nH]c2=O)C(=O)Cn2ccc(N)nc2=O)C(=O)Cn2cnc3c(N)ncnc32)C(=O)Cn2cnc3c(N)nc(NCCCCCN)nc32)C(=O)Cn2cnc3c(N)ncnc32)C(=O)Cn2cnc3c(=O)[nH]c(N)nc32)C(=O)Cn2cc(C)c(=O)[nH]c2=O)C(=O)Cn2ccc(N)nc2=O)C(=O)Cn2ccc(N)nc2=O)C(=O)Cn2cnc3c(N)nc(NCCCCCN)nc32)C(=O)Cn2ccc(N)nc2=O)c(=O)[nH]c1=O | 79.2 | inactive | – |
| Cc1cn(CC(=O)N(CCNC(=O)CN(CCNC(=O)CN(CCN)C(=O)Cn2ccc(N)nc2=O)C(=O)Cn2ccc(N)nc2=O)CC(=O)NCCN(CC(=O)NCCN(CC(=O)NCCN(CC(=O)NCCN(CC(=O)NCCN(CC(=O)NCCN(CC(=O)NCCN(CC(=O)NCCN(CC(=O)NCCN(CC(=O)NCCN(CC(=O)NCCN(CC(=O)O)C(=O)Cn2cnc3c(=O)[nH]c(N)nc32)C(=O)Cn2cnc3c(N)ncnc32)C(=O)Cn2cc3cc(COCCN)[nH]c3nc2=O)C(=O)Cn2ccc(N)nc2=O)C(=O)Cn2cnc3c(N)nc(NCCCCCN)nc32)C(=O)Cn2ccc(N)nc2=O)C(=O)Cn2cnc3c(=O)[nH]c(N)nc32)C(=O)Cn2cnc3c(=O)[nH]c(NCCCCCCN)nc32)C(=O)Cn2cc(C)c(=O)[nH]c2=O)C(=O)Cn2ccc(N)nc2=O)C(=O)Cn2cc3cc(COCCN)[nH]c3nc2=O)c(=O)[nH]c1=O | 78.1 | inactive | – |
| Cc1cn(CC(=O)N(CCNC(=O)CN(CCNC(=O)CN(CCNC(=O)CN(CCNC(=O)CN(CCNC(=O)CN(CCNC(=O)CN(CCNC(=O)CN(CCNC(=O)CN(CCN)C(=O)Cn2cnc3c(N)nc(NCCCCCN)nc32)C(=O)Cn2ccc(N)nc2=O)C(=O)Cn2cnc3c(=O)[nH]c(N)nc32)C(=O)Cn2cnc3c(=O)[nH]c(NCCCCCCN)nc32)C(=O)Cn2ccc(N)nc2=O)C(=O)Cn2cc(C)c(=O)[nH]c2=O)C(=O)Cn2cc3cc(COCCN)[nH]c3nc2=O)C(=O)Cn2ccc(N)nc2=O)CC(=O)NCCN(CC(=O)NCCN(CC(=O)NCCN(CC(=O)NCCN(CC(=O)NCCN(CC(N)=O)C(=O)Cn2cnc3c(=O)[nH]c(N)nc32)C(=O)Cn2cnc3c(=O)[nH]c(NCCCCCCN)nc32)C(=O)Cn2cc(C)c(=O)[nH]c2=O)C(=O)Cn2ccc(N)nc2=O)C(=O)Cn2cc3cc(COCCN)[nH]c3nc2=O)c(=O)[nH]c1=O | 81 | inactive | – |
| Cc1cn(CC(=O)N(CCNC(=O)CN(CCNC(=O)CN(CCNC(=O)CN(CCNC(=O)CN(CCNC(=O)CN(CCN)C(=O)Cn2ccc(N)nc2=O)C(=O)Cn2cnc3c(N)nc(NCCCCCN)nc32)C(=O)Cn2cnc3c(=O)[nH]c(N)nc32)C(=O)Cn2cnc3c(=O)[nH]c(N)nc32)C(=O)Cn2cc3cc(COCCN)[nH]c3nc2=O)CC(=O)NCCN(CC(=O)NCCN(CC(=O)NCCN(CC(=O)NCCN(CC(=O)NCCN(CC(=O)NCCN(CC(=O)NCCN(CC(=O)NCCN(CC(=O)O)C(=O)Cn2cnc3c(=O)[nH]c(NCCCCCCN)nc32)C(=O)Cn2cnc3c(=O)[nH]c(N)nc32)C(=O)Cn2cnc3c(=O)[nH]c(N)nc32)C(=O)Cn2cnc3c(=O)[nH]c(NCCCCCCN)nc32)C(=O)Cn2cc(C)c(=O)[nH]c2=O)C(=O)Cn2cc3cc(COCCN)[nH]c3nc2=O)C(=O)Cn2ccc(N)nc2=O)C(=O)Cn2ccc(N)nc2=O)c(=O)[nH]c1=O | – | inactive | – |
| Cc1cn(CC(=O)N(CCNC(=O)CN(CCNC(=O)CN(CCNC(=O)CN(CCNC(=O)CN(CCNC(=O)CN(CCNC(=O)CN(CCNC(=O)CN(CCNC(=O)CN(CCNC(=O)CN(CCNC(=O)CN(CCNC(=O)CN(CCNC(=O)CN(CCNC(=O)CN(CCN)C(=O)Cn2cc(C)c(=O)[nH]c2=O)C(=O)Cn2ccc(N)nc2=O)C(=O)Cn2cnc3c(N)nc(NCCCCCN)nc32)C(=O)Cn2cc3cc(COCCN)[nH]c3nc2=O)C(=O)Cn2cnc3c(=O)[nH]c(N)nc32)C(=O)Cn2cnc3c(=O)[nH]c(NCCCCCCN)nc32)C(=O)Cn2ccc(N)nc2=O)C(=O)Cn2cc(C)c(=O)[nH]c2=O)C(=O)Cn2cc3cc(COCCN)[nH]c3nc2=O)C(=O)Cn2ccc(N)nc2=O)C(=O)Cn2cc(C)c(=O)[nH]c2=O)C(=O)Cn2ccc(N)nc2=O)C(=O)Cn2cc3cc(COCCN)[nH]c3nc2=O)CC(=O)O)c(=O)[nH]c1=O | 80.4 | inactive | – |
| Cc1cn(CC(=O)N(CCNC(=O)CN(CCNC(=O)CN(CCNC(=O)CN(CCNC(=O)CN(CCNC(=O)CN(CCN)C(=O)Cn2cnc3c(N)nc(NCCCCCN)nc32)C(=O)Cn2cnc3c(N)ncnc32)C(=O)Cn2cnc3c(=O)[nH]c(N)nc32)C(=O)Cn2cnc3c(=O)[nH]c(N)nc32)C(=O)Cn2cc(C)c(=O)[nH]c2=O)CC(=O)NCCN(CC(=O)NCCN(CC(=O)NCCN(CC(=O)NCCN(CC(=O)NCCN(CC(=O)NCCN(CC(=O)NCCN(CC(=O)NCCN(CC(=O)NCCN(CC(=O)NCCN(CC(=O)NCCN(CC(=O)NCCN(CC(=O)NCCN(CC(=O)NCCN(CC(=O)O)C(=O)Cn2cnc3c(N)nc(NCCCCCN)nc32)C(=O)Cn2ccc(N)nc2=O)C(=O)Cn2cnc3c(N)ncnc32)C(=O)Cn2cnc3c(N)nc(NCCCCCN)nc32)C(=O)Cn2cc(C)c(=O)[nH]c2=O)C(=O)Cn2ccc(N)nc2=O)C(=O)Cn2ccc(N)nc2=O)C(=O)Cn2cnc3c(=O)[nH]c(N)nc32)C(=O)Cn2cnc3c(=O)[nH]c(N)nc32)C(=O)Cn2cnc3c(N)nc(NCCCCCN)nc32)C(=O)Cn2ccc(N)nc2=O)C(=O)Cn2ccc(N)nc2=O)C(=O)Cn2cc3cc(COCCN)[nH]c3nc2=O)C(=O)Cn2ccc(N)nc2=O)c(=O)[nH]c1=O | > 90 | inactive | – |
| Cc1cn(CC(=O)N(CCNC(=O)CN(CCNC(=O)CN(CCNC(=O)CN(CCNC(=O)CN(CCN)C(=O)Cn2ccc(N)nc2=O)C(=O)Cn2cc(C)c(=O)[nH]c2=O)C(=O)Cn2cc3cc(COCCN)[nH]c3nc2=O)C(=O)Cn2ccc(N)nc2=O)CC(=O)NCCN(CC(=O)NCCN(CC(=O)NCCN(CC(=O)NCCN(CC(=O)NCCN(CC(=O)NCCN(CC(=O)NCCN(CC(=O)NCCN(CC(=O)NCCN(CC(=O)O)C(=O)Cn2cc3cc(COCCN)[nH]c3nc2=O)C(=O)Cn2ccc(N)nc2=O)C(=O)Cn2cnc3c(N)nc(NCCCCCN)nc32)C(=O)Cn2ccc(N)nc2=O)C(=O)Cn2cnc3c(=O)[nH]c(N)nc32)C(=O)Cn2cnc3c(=O)[nH]c(NCCCCCCN)nc32)C(=O)Cn2cc(C)c(=O)[nH]c2=O)C(=O)Cn2cc3cc(COCCN)[nH]c3nc2=O)C(=O)Cn2ccc(N)nc2=O)c(=O)[nH]c1=O | 79 | inactive | – |
| Cc1cn(CC(=O)N(CCNC(=O)CN(CCNC(=O)CN(CCNC(=O)CN(CCNC(=O)CN(CCNC(=O)CN(CCNC(=O)CN(CCNC(=O)CN(CCNC(=O)CN(CCNC(=O)CN(CCNC(=O)CN(CCNC(=O)CN(CCNC(=O)CN(CCN)C(=O)Cn2cnc3c(N)nc(NCCCCCN)nc32)C(=O)Cn2ccc(N)nc2=O)C(=O)Cn2cc(C)c(=O)[nH]c2=O)C(=O)Cn2ccc(N)nc2=O)C(=O)Cn2cnc3c(N)nc(NCCCCCN)nc32)C(=O)Cn2ccc(N)nc2=O)C(=O)Cn2cnc3c(=O)[nH]c(N)nc32)C(=O)Cn2cnc3c(=O)[nH]c(N)nc32)C(=O)Cn2ccc(N)nc2=O)C(=O)Cn2cc(C)c(=O)[nH]c2=O)C(=O)Cn2cc3cc(COCCN)[nH]c3nc2=O)C(=O)Cn2ccc(N)nc2=O)CC(=O)NCCN(CC(=O)NCCN(CC(=O)NCCN(CC(=O)NCCN(CC(=O)NCCN(CC(=O)NCCN(CC(=O)NCCN(CC(=O)O)C(=O)Cn2cnc3c(N)nc(NCCCCCN)nc32)C(=O)Cn2ccc(N)nc2=O)C(=O)Cn2cnc3c(=O)[nH]c(N)nc32)C(=O)Cn2cnc3c(=O)[nH]c(NCCCCCCN)nc32)C(=O)Cn2cc(C)c(=O)[nH]c2=O)C(=O)Cn2ccc(N)nc2=O)C(=O)Cn2ccc(N)nc2=O)c(=O)[nH]c1=O | > 90 | inactive | – |
| Cc1cn(CC(=O)N(CCN)CC(=O)NCCN(CC(=O)NCCN(CC(=O)NCCN(CC(=O)NCCN(CC(=O)NCCN(CC(=O)NCCN(CC(=O)NCCN(CC(=O)NCCN(CC(=O)NCCN(CC(=O)NCCN(CC(=O)NCCN(CC(=O)NCCN(CC(=O)NCCN(CC(=O)NCCN(CC(=O)NCCN(CC(=O)NCCN(CC(=O)NCCN(CC(=O)NCCN(CC(=O)NCCN(CC(=O)O)C(=O)Cn2cnc3c(=O)[nH]c(NCCCCCCN)nc32)C(=O)Cn2ccc3c(=O)[nH]c(N)nc32)C(=O)Cn2cnc3c(=O)[nH]c(N)nc32)C(=O)Cn2cnc3c(=O)[nH]c(NCCCCCCN)nc32)C(=O)Cn2cc(C)c(=O)[nH]c2=O)C(=O)Cn2ccc(N)nc2=O)C(=O)Cn2ccc(N)nc2=O)C(=O)Cn2ccc(N)nc2=O)C(=O)Cn2cc(C)c(=O)[nH]c2=O)C(=O)Cn2cc3cc(COCCN)[nH]c3nc2=O)C(=O)Cn2cnc3c(=O)[nH]c(N)nc32)C(=O)Cn2cnc3c(=O)[nH]c(N)nc32)C(=O)Cn2cnc3c(N)nc(NCCCCCN)nc32)C(=O)Cn2ccc(N)nc2=O)C(=O)Cn2cnc3c(=O)[nH]c(N)nc32)C(=O)Cn2cc(C)c(=O)[nH]c2=O)C(=O)Cn2cnc3c(=O)[nH]c(N)nc32)C(=O)Cn2cc(C)c(=O)[nH]c2=O)C(=O)Cn2cnc3c(=O)[nH]c(N)nc32)c(=O)[nH]c1=O | > 90 | inactive | Dose-dependent-effect |
| Cc1cn(CC(=O)N(CCN)CC(=O)NCCN(CC(=O)NCCN(CC(=O)NCCN(CC(=O)NCCN(CC(=O)NCCN(CC(=O)NCCN(CC(=O)NCCN(CC(=O)NCCN(CC(=O)NCCN(CC(=O)NCCN(CC(=O)NCCN(CC(=O)NCCN(CC(=O)NCCN(CC(=O)O)C(=O)Cn2ccc(N)nc2=O)C(=O)Cn2cc3cc(COCCN)[nH]c3nc2=O)C(=O)Cn2cc(C)c(=O)[nH]c2=O)C(=O)Cn2ccc(N)nc2=O)C(=O)Cn2cnc3c(=O)[nH]c(NCCCCCCN)nc32)C(=O)Cn2cnc3c(=O)[nH]c(N)nc32)C(=O)Cn2cnc3c(N)nc(NCCCCCN)nc32)C(=O)Cn2ccc(N)nc2=O)C(=O)Cn2cnc3c(=O)[nH]c(NCCCCCCN)nc32)C(=O)Cn2cc(C)c(=O)[nH]c2=O)C(=O)Cn2cnc3c(=O)[nH]c(NCCCCCCN)nc32)C(=O)Cn2cc(C)c(=O)[nH]c2=O)C(=O)Cn2cnc3c(=O)[nH]c(NCCCCCCN)nc32)c(=O)[nH]c1=O | 70.5 | inactive | – |

From ChEMBL document CHEMBL6120979, “Cell penetrable peptide nucleic acids targeting PDZK1IP1 with anti-inflammatory potential in human keratinocytes” (Bioorg Med Chem Lett, 2025)
